# Key:
# [1] = target: T1, Human HDAC5 (Homo sapiens, UniProt Q9UQL6); experiment: HDAC5 biochemical assay, class IIa-specific substrate; conditions: read-out: HDAC Isoform IC50 (nM) 5
# T1 construct: full length with C-terminal His tag, MW=51.1 kDa; His (C); host or cells: baculovirus expression system
# Procedure, shortened: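 Two-step fluorogenic read-out: deacetylated trifluoroacetyl-lysine AMC substrate (50 μM) digested by developer, measured at Ex/Em 360/460. Deacetylation step: 0.05 ng/ul His-tagged full-length baculoviral enzyme with compound, 30 min, room temperature, pH 8.0 Tris with 1 mg/mL BSA and 1% DMSO.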
# [2] = target: T2, Human HDAC7 (Homo sapiens, UniProt Q8WUI4); experiment: HDAC7 biochemical assay, class IIa-specific substrate; conditions: read-out: HDAC Isoform IC50 (nM) 7
# T2 construct: (a.a. 518-end) with N-terminal GST tag; GST (N); host or cells: baculovirus expression system
# T2 sequence (Q8WUI4 518-952 limits assumed): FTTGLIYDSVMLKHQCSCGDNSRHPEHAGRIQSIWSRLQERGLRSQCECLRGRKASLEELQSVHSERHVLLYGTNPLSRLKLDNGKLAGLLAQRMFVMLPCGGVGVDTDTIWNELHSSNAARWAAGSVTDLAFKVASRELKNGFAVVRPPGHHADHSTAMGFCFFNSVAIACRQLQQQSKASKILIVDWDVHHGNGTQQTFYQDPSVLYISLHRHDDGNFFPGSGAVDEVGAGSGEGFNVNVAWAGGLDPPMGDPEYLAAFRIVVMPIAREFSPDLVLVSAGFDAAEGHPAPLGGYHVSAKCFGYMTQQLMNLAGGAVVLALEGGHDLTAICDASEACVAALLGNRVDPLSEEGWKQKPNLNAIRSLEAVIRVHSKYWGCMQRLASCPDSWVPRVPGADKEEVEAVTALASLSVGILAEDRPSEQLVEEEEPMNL
# Procedure, shortened: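 Two-step fluorogenic readout: class IIa-selective trifluoroacetyl-lysine AMC substrate (50 μM) deacetylated by N-terminal GST-HDAC7 fragment (0.001 ng/ul), then digested by developer, Ex/Em 360/460. Reaction: 30 min, room temperature, Tris-HCl pH 8.0, NaCl/KCl/MgCl2, 1 mg/mL BSA, 1% DMSO.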
# [3] = target: T3, Human HDAC4 (Homo sapiens, UniProt P56524); experiment: HDAC4 biochemical assay, class IIa-specific substrate; conditions: read-out: HDAC Isoform IC50 (nM) 4
# T3 construct: amino acids 627-1085 with N-terminal GST tag; GST (N); host or cells: baculovirus expression system
# T3 sequence (P56524 627-1084 limits assumed): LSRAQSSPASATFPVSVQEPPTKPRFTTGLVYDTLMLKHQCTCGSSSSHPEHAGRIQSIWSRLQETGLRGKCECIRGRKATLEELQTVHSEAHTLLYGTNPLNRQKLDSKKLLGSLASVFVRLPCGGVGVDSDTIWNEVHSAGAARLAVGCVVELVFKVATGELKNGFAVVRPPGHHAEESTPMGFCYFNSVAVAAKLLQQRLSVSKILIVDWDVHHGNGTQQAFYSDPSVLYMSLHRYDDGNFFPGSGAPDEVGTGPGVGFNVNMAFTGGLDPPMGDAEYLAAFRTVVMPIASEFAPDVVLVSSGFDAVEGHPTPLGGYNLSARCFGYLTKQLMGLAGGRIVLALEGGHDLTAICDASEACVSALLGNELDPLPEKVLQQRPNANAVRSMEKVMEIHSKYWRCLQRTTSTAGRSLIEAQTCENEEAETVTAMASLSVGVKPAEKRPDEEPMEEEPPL
# Procedure, shortened: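 Two-step fluorogenic read-out: deacetylated BOC-Lys(trifluoroacetyl)-AMC (50 μM) was digested by developer and measured at Ex/Em 360/460. Deacetylation by 0.004 ng/ul HDAC4 (aa 627-1085, N-terminal GST) ran 30 min at room temperature, pH 8.0 Tris buffer, 1 mg/mL BSA, 1% DMSO.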
# [4] = target: T4, Human HDAC1 (Homo sapiens, UniProt Q13547); experiment: HDAC1 biochemical assay, AMC-labeled peptide substrate; conditions: read-out: HDAC Isoform IC50 (nM) 1
# T4 construct: full length with C-terminal His-tag and C-terminal FLAG-tag; His (C); FLAG (C); host or cells: baculovirus expression system
# T4 sequence (Q13547 whole entry, canonical isoform): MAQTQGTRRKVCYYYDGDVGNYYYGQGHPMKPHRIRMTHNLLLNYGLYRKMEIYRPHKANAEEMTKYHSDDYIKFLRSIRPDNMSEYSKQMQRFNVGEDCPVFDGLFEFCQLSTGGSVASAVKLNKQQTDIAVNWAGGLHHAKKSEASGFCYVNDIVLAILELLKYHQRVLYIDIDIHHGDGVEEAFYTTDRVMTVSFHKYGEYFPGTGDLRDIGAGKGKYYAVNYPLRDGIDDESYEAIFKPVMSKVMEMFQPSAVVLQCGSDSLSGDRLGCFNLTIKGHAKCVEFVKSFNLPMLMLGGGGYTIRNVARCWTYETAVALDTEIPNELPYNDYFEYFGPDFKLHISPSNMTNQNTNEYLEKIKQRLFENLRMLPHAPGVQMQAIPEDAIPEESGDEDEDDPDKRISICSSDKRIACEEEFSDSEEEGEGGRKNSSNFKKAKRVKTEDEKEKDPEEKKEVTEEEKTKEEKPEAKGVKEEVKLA
# Procedure, shortened: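 Two-step fluorogenic read: HDAC1 deacetylates 50 μM acetyl-lysine AMC peptide RHKK(Ac)AMC for 1 h at 30° C (pH 8.0, 1% DMSO, with compound), then developer digests the product for fluorescence at Ex/Em 360/460. Enzyme is full-length human, His/FLAG-tagged, insect-cell expressed, at 0.3 ng/ul.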
# [5] = target: T5, Recombinant human HDAC6 (Homo sapiens, UniProt Q9UBN7); experiment: HDAC6 biochemical assay, AMC-labeled peptide substrate; conditions: HDAC6; read-out: HDAC Isoform IC50 (nM) 6
# T5 construct: full length, MW=159 kDa; GST (N); host or cells: Sf9 insect cells (baculovirus)
# T5 sequence (Q9UBN7 1-1215): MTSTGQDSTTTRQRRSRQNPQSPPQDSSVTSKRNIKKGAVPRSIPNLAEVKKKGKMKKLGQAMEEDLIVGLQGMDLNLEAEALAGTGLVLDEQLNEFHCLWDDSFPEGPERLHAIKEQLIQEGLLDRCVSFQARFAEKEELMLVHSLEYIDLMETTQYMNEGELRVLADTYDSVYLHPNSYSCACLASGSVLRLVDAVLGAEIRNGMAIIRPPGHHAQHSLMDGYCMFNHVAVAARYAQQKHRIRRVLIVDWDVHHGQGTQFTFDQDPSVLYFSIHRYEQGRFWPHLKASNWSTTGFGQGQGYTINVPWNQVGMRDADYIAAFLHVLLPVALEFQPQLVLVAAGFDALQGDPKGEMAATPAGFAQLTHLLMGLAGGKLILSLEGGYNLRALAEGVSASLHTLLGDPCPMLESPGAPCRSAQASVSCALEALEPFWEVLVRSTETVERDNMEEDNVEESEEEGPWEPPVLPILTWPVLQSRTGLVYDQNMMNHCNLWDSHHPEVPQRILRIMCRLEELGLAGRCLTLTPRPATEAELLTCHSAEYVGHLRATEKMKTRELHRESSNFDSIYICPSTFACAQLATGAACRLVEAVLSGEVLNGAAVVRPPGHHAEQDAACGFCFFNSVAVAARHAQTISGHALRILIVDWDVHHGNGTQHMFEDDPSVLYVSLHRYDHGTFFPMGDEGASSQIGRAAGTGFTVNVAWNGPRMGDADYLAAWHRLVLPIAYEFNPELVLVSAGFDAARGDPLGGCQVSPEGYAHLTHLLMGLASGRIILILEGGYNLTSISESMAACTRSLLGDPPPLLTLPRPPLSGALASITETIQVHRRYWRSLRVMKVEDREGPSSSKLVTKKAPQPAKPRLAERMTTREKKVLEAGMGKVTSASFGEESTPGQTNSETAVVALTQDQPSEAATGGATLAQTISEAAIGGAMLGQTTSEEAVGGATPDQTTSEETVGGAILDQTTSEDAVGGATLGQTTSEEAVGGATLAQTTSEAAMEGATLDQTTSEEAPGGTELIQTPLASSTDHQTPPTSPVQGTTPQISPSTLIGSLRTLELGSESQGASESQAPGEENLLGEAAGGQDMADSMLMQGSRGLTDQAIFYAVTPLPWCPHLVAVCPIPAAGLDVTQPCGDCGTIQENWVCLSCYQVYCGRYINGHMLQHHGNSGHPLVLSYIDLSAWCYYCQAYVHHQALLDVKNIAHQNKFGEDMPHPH
# Procedure, shortened: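 Two-step fluorogenic read-out: enzyme deacetylates 50 μM RHKK(Ac)AMC for 1 h at 30° C in pH 8.0 Tris buffer with BSA and 1% DMSO, then developer cleavage gives signal at Ex 360/Em 460. Enzyme: 0.3 ng/ul recombinant full-length human HDAC6, GST-tagged, Sf9-expressed.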
# [6] = target: T6, Human HDAC9 (Homo sapiens, UniProt Q9UKV0); experiment: HDAC9 biochemical assay, class IIa-specific substrate; conditions: read-out: HDAC Isoform IC50 (nM) 9
# T6 construct: amino acids 604-1066 with C-terminal His tag; His (C); host or cells: baculovirus expression system
# T6 sequence (Q9UKV0 604-1066 isoform Q9UKV0-5): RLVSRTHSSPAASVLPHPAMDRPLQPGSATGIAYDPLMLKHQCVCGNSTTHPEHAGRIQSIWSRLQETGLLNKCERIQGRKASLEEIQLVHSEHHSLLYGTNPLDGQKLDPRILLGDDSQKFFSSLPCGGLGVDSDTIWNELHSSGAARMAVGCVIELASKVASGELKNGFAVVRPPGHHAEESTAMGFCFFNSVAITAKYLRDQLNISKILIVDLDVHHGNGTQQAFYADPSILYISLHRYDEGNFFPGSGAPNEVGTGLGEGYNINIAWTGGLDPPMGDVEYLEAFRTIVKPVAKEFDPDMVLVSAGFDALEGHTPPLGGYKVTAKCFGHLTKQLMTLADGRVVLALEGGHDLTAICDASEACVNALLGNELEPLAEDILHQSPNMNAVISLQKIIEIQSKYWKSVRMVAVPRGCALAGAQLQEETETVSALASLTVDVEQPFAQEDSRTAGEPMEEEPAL
# Procedure, shortened: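 HDAC9 residues 604-1066 (C-terminal His tag, baculovirus-expressed) at 0.06 ng/ul with 50 μM class IIa substrate Boc-Lys(trifluoroacetyl)-AMC in Tris-HCl pH 8.0 buffer with BSA and 1% DMSO. 30 min at room temperature, then developer added; fluorescence read at 360/460 nm Ex/Em.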
# T1 sequence (Q9UQL6 656-1122 limits assumed): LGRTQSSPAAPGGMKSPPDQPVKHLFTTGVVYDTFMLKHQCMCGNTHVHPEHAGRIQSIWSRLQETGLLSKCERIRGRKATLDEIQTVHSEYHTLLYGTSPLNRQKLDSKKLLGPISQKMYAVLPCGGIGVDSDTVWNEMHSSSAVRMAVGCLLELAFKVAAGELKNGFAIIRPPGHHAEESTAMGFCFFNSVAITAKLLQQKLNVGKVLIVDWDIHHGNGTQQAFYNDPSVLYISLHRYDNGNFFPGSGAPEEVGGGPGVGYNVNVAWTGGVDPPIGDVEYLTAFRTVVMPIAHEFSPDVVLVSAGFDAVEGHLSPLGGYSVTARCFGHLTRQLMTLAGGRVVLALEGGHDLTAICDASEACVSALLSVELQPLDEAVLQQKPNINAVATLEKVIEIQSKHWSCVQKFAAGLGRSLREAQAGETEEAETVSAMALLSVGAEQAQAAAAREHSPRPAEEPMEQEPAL
IC50 [1],IC50 [2],IC50 [3],IC50 [4],IC50 [5],IC50 [6],Compound
≤ 500 nM,≤ 500 nM,≤ 500 nM,> 10000 nM,≤ 10000 nM,≤ 1000 nM,"COc1ncc(N(Cc2ccc(-c3noc(C(F)(F)F)n3)s2)c2cnccn2)cn1 [Example CT, 2-Methoxy-N-(pyrazin-2-yl)-N-({5-[5-(trifluoromethyl)-1,2,4-oxadiazol-3-yl]thiophen-2-yl}methyl)pyrimidin-5-amine]"
≤ 10000 nM,≤ 10000 nM,≤ 10000 nM,> 10000 nM,≤ 10000 nM,≤ 10000 nM,"Cc1cnc(N(Cc2ccc(-c3noc(C(F)(F)F)n3)s2)c2cnccn2)nc1 [Example AW, 5-Methyl-N-(pyrazin-2-yl)-N-({5-[5-(trifluoromethyl)-1,2,4-oxadiazol-3-yl]thiophen-2-yl}methyl)pyrimidin-2-amine]"
≤ 10000 nM,≤ 10000 nM,≤ 10000 nM,> 10000 nM,≤ 10000 nM,≤ 10000 nM,"COc1cc(N(Cc2ccc(-c3noc(C(F)(F)F)n3)s2)c2cnccn2)ncn1 [Example CH, 6-Methoxy-N-(pyrazin-2-yl)-N-({5-[5-(trifluoromethyl)-1,2,4-oxadiazol-3-yl]thiophen-2-yl}methyl)pyrimidin-4-amine]"
≤ 500 nM,≤ 1000 nM,≤ 500 nM,> 10000 nM,≤ 10000 nM,≤ 10000 nM,"CC(c1ccc(-c2noc(C(F)(F)F)n2)s1)N(c1cnccn1)c1cnccn1 (stereo not drawn) [Example BB, N-(Pyrazin-2-yl)-N-(1-{5-[5-(trifluoromethyl)-1,2,4-oxadiazol-3-yl]thiophen-2-yl}ethyl)pyrazin-2-amine]"
≤ 10000 nM,≤ 10000 nM,≤ 10000 nM,> 10000 nM,≤ 10000 nM,≤ 10000 nM,"FC(F)(F)c1nc(-c2ccc(CN(c3cnccn3)c3nccc4nccnc34)s2)no1 [Example AL, N-{Pyrido[3,4-b]pyrazin-5-yl}-N-({5-[5-(trifluoromethyl)-1,2,4-oxadiazol-3-yl]thiophen-2-yl}methyl)pyrazin-2-amine]"
≤ 10000 nM,> 10000 nM,> 10000 nM,> 10000 nM,≤ 10000 nM,> 10000 nM,"FC(F)(F)c1cnnc(N(Cc2ccc(-c3noc(C(F)(F)F)n3)s2)c2ncccn2)c1 [Example EK, N-(Pyrimidin-2-yl)-5-(trifluoromethyl)-N-({5-[5-(trifluoromethyl)-1,2,4-oxadiazol-3-yl]thiophen-2-yl}methyl)pyridazin-3-amine]"
≤ 10000 nM,≤ 10000 nM,≤ 10000 nM,> 10000 nM,≤ 1000 nM,≤ 10000 nM,"FC(F)(F)c1nc(-c2ccc(CN(c3cnccn3)c3ncccc3N3CCOCC3)s2)no1 [Example AN, N-[3-(Morpholin-4-yl)pyridin-2-yl]-N-({5-[5-(trifluoromethyl)-1,2,4-oxadiazol-3-yl]thiophen-2-yl}methyl)pyrazin-2-amine]"
≤ 10000 nM,≤ 10000 nM,≤ 1000 nM,> 10000 nM,≤ 10000 nM,≤ 10000 nM,"FC(F)(F)c1nc(-c2ccc(CN(c3cnccn3)c3cncnc3C(F)(F)F)s2)no1 [Example DA, N-(Pyrazin-2-yl)-4-(trifluoromethyl)-N-({5-[5-(trifluoromethyl)-1,2,4-oxadiazol-3-yl]thiophen-2-yl}methyl)pyrimidin-5-amine]"
≤ 1000 nM,≤ 1000 nM,≤ 1000 nM,> 10000 nM,≤ 10000 nM,≤ 10000 nM,"CS(=O)(=O)c1cnc(N(Cc2ccc(-c3noc(C(F)(F)F)n3)s2)c2cnccn2)cn1 [Example BL, 5-Methanesulfonyl-N-(pyrazin-2-yl)-N-({5-[5-(trifluoromethyl)-1,2,4-oxadiazol-3-yl]thiophen-2-yl}methyl)pyrazin-2-amine]"
≤ 1000 nM,≤ 10000 nM,≤ 1000 nM,> 10000 nM,≤ 1000 nM,≤ 10000 nM,"CN(C)C(=O)c1ccc(N(Cc2ccc(-c3noc(C(F)(F)F)n3)s2)c2cnccn2)nc1 [Example AC, N,N-Dimethyl-6-[pyrazin-2-yl({5-[5-(trifluoromethyl)-1,2,4-oxadiazol-3-yl]thiophen-2-yl}methyl)amino]pyridine-3-carboxamide]"
≤ 10000 nM,≤ 10000 nM,≤ 10000 nM,≤ 10000 nM,≤ 1000 nM,≤ 10000 nM,"COc1cnc(N(Cc2ccc(-c3noc(C(F)(F)F)n3)s2)c2cnccn2)nc1 [Example AY, 5-Methoxy-N-(pyrazin-2-yl)-N-({5-[5-(trifluoromethyl)-1,2,4-oxadiazol-3-yl]thiophen-2-yl}methyl)pyrimidin-2-amine]"
≤ 1000 nM,≤ 1000 nM,≤ 1000 nM,> 10000 nM,≤ 1000 nM,≤ 10000 nM,"FC(F)(F)c1nc(-c2ccc(CN(c3cnccn3)c3ccc4nccnc4n3)s2)no1 [Example Z, N-{Pyrido[2,3-b]pyrazin-6-yl}-N-({5-[5-(trifluoromethyl)-1,2,4-oxadiazol-3-yl]thiophen-2-yl}methyl)pyrazin-2-amine]"

# Reference: patent publication US20210038607A1, “OXADIAZOLYLTHIOPHENE DERIVATIVES USEFUL AS HISTONE DEACETYLASE INHIBITORS” (Karus Therapeutics Limited, priority 2018, published 2021)
